Measurements published in patent publication US20230097883A1, “ERGOTHIONEINE PET COMPOUNDS AND METHODS OF USE THEREOF” (VANDERBILT UNIVERSITY, priority 2021, published 2023).
“Also recorded” adds a separate entry of the source.

How the values were obtained:
[1] = tested on: oxidative stress; experiment: PET imaging of LPS-induced neuroinflammation with [11C]ERGO radioligand, with Tempol blocking; type: in vivo, mouse; conditions: LPS 5 mg/Kg i.p. 24 h before; 20 MBq/0.1 mL I.V.; 30 min scan from 10 min after injection
Description: The mice were injected with ˜20 MBq/0.1 ml 11C-ERGO via the tail vein and returned to their cages for 10 min. Then they were anesthetized with 2% isofluorane and imaged in an Inveon microPET (Siemens Pre-clinical, Knoxville, Tenn., USA) for 30 min in static mode followed by a CT scan using a NanoSPECT/CT (Mediso, Wash. D.C.) at an x-ray beam intensity of […] and x-ray voltage of 45 kVp. PET images were reconstructed using the iterative MAP reconstruction algorithm with 18 iterations and a beta smoothing value of 0.001 into 128×128×95 slices with a voxel size of 0.388 mm×0.388 mm×0.796 mm. The CT images were reconstructed into 170×170×126 slices at a voxel size of 0.4×0.4×0.4 mm^3. The PET and CT images were co-registered using the imaging tool AMIDE.
The mouse model of LPS-induced neuroinflammation was developed based on past reports. The LPS derived from Escherichia coli […] (Sigma Aldrich, St Louis, Mo.) was formulated in sterilized dd. water and given a high dose of LPS formulation (5 mg/Kg) through intraperitoneal injection 24 h before PET imaging. This high dose would result in approximately 12-13% body weight loss over the course of 24 h. After PET imaging, animals were sacrificed, and the brains were collected for histology analysis.
The reported LPS mouse model of neuroinflammation in the past was reproduced for the validation of the specificity of the probe. […]

[2] = tested on: neuroblastoma SH-SY5Y cells; experiment: DCFH-DA ROS scavenging assay in SH-SY5Y cells; type: cell-based
Text: We used a commercially available DCFH-DA (2′,7′-dichlorodihydrofluorescein diacetate) probe to assess the ROS scavenging power of ERGO in HeLa and neuroblastoma SH-SY5Y cells. Upon penetrating the cytoplasm, DCFH-DA is deacetylated by endogenous esterases to a non-fluorescent intermediate, followed by oxidation by free radicals. This generates a continuous and extended conjugation system, resulting in the production of highly fluorescent DCF (2′ 7′-dichlorofluorescein). In an aqueous condition, DCF has a maximal excitation and emission of 495 nm and 529 nm, respectively. Well-adhered HeLa or SH-SY5Y cells previously incubated with DCFH-DA were exposed to a commercial ROS initializer and ERGO concentrations ranging from 0-100 mM. […] Each point in the assay was measured in pentaplicate, p<0.0001.
On day 1, HeLa cells or SH-SY5Y cells were seeded into a 96-well plate with a density of 10,000 cells/mL. […] Immediately afterwards, fluorescence measurement began using a microplate reader (Biotek Industries, Agilent Technologies, Winooski, Vt., USA) with an excitation and emission wavelength of 485 nm and 528 nm, respectively. Each ERGO concentration was measured in pentaplicate.

[3] = tested on: 5XFAD mice; experiment: Elevated zero maze after ERGO treatment; type: in vivo, mouse
Description: To address our primary question whether longitudinal consumption of ERGO as a potent antioxidant benefit the brain, three cohorts of animals (n=12 non-treated WT control, n=12 non-treated 5XFAD, and n=18 ERGO-treated 5XFAD) were used (FIG. 3.2A). Starting at the age of 8 weeks, the animals were treated with high doses of ERGO solution (25-50 mg/Kg) formulated in double distilled (dd) water via oral gavage three times a week over the course of eight weeks. To reduce bias in the behavioral experiments with regard to the potential stress during gavage treatment, non-treated animals underwent the identical gavage process with the vehicle, water, only. The efficacy of the therapy was evaluated by behavioral testing, followed by three different non-invasive PET imaging sessions to assess biomarkers related to AD pathology. In addition to assessing Abeta levels and glucose metabolism using the [^11C]PIB and [^18F]FDG probes, respectively; we also tested for the first time whether oxidative stress could be used as an indicator of response to therapy using the [^11C]ERGO PET radioligand. […]
We recorded exploratory activity in open versus closed zones of a standard EZM during a 5-min trial. […] Closed zones had walls of approximately 30 cm height and light levels of 215-280 lux depending on where they were measured. […]

Compound	PET signal in brain regions, LPS-treated versus nontreated WT mice [1]	DCF fluorescence signal (ROS) ([2]; ERGO 100 mM)	DCF fluorescence signal (ROS) ([2]; ERGO starting from 5 mM)	adverse effects on activity or anxiety-like behavior ([3]; 5XFAD mice, ERGO 25-50 mg/Kg oral gavage three times a week over eight weeks)	time spent exploring the closed zones ([3]; ERGO-treated 5XFAD mice (each group), 5-min trial) [%]
C[N+](C)([11CH3])[C@@H](Cc1c[nH]c(=S)[nH]1)C(=O)[O-] [[^11C]ERGO]	stronger than that from nontreated counterparts across every major region of the brain				
C[N+](C)(C)[C@@H](Cc1c[nH]c(=S)[nH]1)C(=O)[O-] [ERGO, L-ergothioneine]		nearly negligible; also recorded: quenches the fluorescence totally	attenuates the fluorescence significantly	no adverse effects	~60
